Columns and labels:
Type in all cases: in vivo
[1] = tested on: Italian ryegrass (Lolium multiflorum); assay: Test B pre-/postemergence plant response; settings: for Ryegrass, Italian plant response rating: 8 g ai/ha
Procedure, shortened: (§1)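 Seeds were sown and sprayed preemergence, while plants at 2 to 18 cm (1- to 4-leaf stage) got postemergence sprays. Compounds were formulated in a non-phytotoxic solvent mixture with surfactant. After 13 to 15 days in a greenhouse, injury was rated visually against untreated controls, 0 (no effect) to 100 (complete control).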

[2] = tested on: Russian thistle (Salsola iberica); assay: Test B pre-/postemergence plant response; settings: Preemergence
Procedure, shortened: as §1

[3] = tested on: bermudagrass (Cynodon dactylon); assay: Test B pre-/postemergence plant response; settings: for Bermudagrass plant response rating: 8 g ai/ha
Procedure, shortened: as §1

[4] = tested on: cocklebur (Xanthium strumarium); assay: Test B pre-/postemergence plant response; settings: for Cocklebur plant response rating: 8 g ai/ha
Procedure, shortened: as §1

[5] = tested on: common ragweed (Ambrosia elation); assay: Test B pre-/postemergence plant response; settings: for Ragweed plant response rating: 8 g ai/ha
Procedure, shortened: as §1

[6] = tested on: goosegrass (Eleusine indica); assay: Test B pre-/postemergence plant response; settings: for Goosegrass plant response rating: 8 g ai/ha
Procedure, shortened: as §1

[7] = tested on: lambsquarters (Chenopodium album); assay: Test B pre-/postemergence plant response; settings: for Lambsquarters plant response rating: 8 g ai/ha
Procedure, shortened: as §1

[8] = tested on: large crabgrass (Digitaria sanguinalis); assay: Test B pre-/postemergence plant response; settings: for Crabgrass, Large plant response rating: 8 g ai/ha
Procedure, shortened: as §1

soybean (Glycine max) = assay: Test B pre-/postemergence plant response; settings: for Soybean plant response rating: 8 g ai/ha
Procedure, shortened: as §1

[9] = tested on: velvetleaf (Abutilon theophrasti); assay: Test B pre-/postemergence plant response; settings: for Velvetleaf plant response rating: 8 g ai/ha
Procedure, shortened: as §1

[10] = tested on: barnyardgrass (Echinochloa crus-galli); assay: Test B flooded paddy test plant response
Procedure, shortened: (§2)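 Paddy-water application to 2-leaf plants in pots held under 3 cm of flooding; response is a 0–100 visual control rating against controls after 13 to 15 days, and a dash marks a missing result.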

[11] = tested on: ducksalad (Heteranthera limosa); assay: Test B flooded paddy test plant response; settings: Flood (flooded paddy test), scale 0 to 100, 0 no effect, 100 complete control
Procedure, shortened: as §2

rice (Oryza sativa) = assay: Test B flooded paddy test plant response
Procedure, shortened: as §2

[12] = tested on: umbrella sedge (Cyperus difformis); assay: Test B flooded paddy test plant response
Procedure, shortened: as §2

[13] = Postemergence, 16 g ai/ha, scale 0 to 100
[14] = Postemergence, 31 g ai/ha, scale 0 to 100, 0 no effect, 100 complete control
[15] = Postemergence, 62 g ai/ha, scale 0 to 100, 0 no effect, 100 complete control
[16] = Preemergence, 16 g ai/ha, scale 0 to 100 (0 no effect, 100 complete control)
[17] = Preemergence, 31 g ai/ha, scale 0 to 100 (0 no effect, 100 complete control)
[18] = Preemergence, 62 g ai/ha, scale 0 to 100
[19] = Preemergence, 31 g ai/ha, 0 to 100 scale, 0 no effect, 100 complete control
[20] = Flood (flooded paddy test), 62 g ai/ha, scale 0 to 100, 0 no effect, 100 complete control
[21] = Flood (flooded paddy test), 125 g ai/ha, scale 0 to 100, 0 no effect, 100 complete control
[22] = Flood (flooded paddy test), 250 g ai/ha, scale 0 to 100, 0 no effect, 100 complete control
[23] = Flood, 31 g ai/ha, scale 0 to 100

SMILES: Cc1cc(-c2ccc(C(F)(F)F)c(F)c2)nn1-c1c(O)c(C(F)(F)F)nn(C)c1=O [Compound 44]
- Ryegrass, Italian plant response rating ([1]; postemergence, 0-100 scale): 90
- Plant response rating, Ryegrass, Italian [1, 13]: 95
- Plant response rating, Ryegrass, Italian [1, 14]: 100
- Plant response rating, Ryegrass, Italian [1, 15]: 100
- Plant response rating, Ryegrass, Italian [1, 16]: 90
- Plant response rating, Ryegrass, Italian [1, 17]: 90
- Plant response rating, Ryegrass, Italian [1, 18]: 100
- Ryegrass, Italian plant response rating ([1]; Preemergence, scale 0 to 100): 20
- Plant response rating, Russian Thistle ([2]; 16 g ai/ha, scale 0 to 100 (0 no effect, 100 complete control)): 0
- Plant response rating, Russian Thistle ([2]; 31 g ai/ha, scale 0 to 100 (0 no effect, 100 complete control)): 0
- Plant response rating, Russian Thistle ([2]; 62 g ai/ha, scale 0 to 100): 0
- Russian Thistle plant response rating ([2]; 8 g ai/ha, scale 0 to 100): 0
- Bermudagrass plant response rating ([3]; postemergence, 0-100 scale): 65
- Plant response rating, Bermudagrass [3, 13]: 90
- Plant response rating, Bermudagrass [3, 14]: 95
- Plant response rating, Bermudagrass [3, 15]: 100
- Bermudagrass plant response rating ([3]; Preemergence, scale 0 to 100 (0 no effect, 100 complete control)): 0
- Plant response rating, Bermudagrass [3, 16]: 0
- Plant response rating, Bermudagrass [3, 19]: 0
- Plant response rating, Bermudagrass [3, 18]: 0
- Cocklebur plant response rating ([4]; postemergence, 0-100 scale): 0
- Plant response rating, Cocklebur [4, 13]: 0
- Plant response rating, Cocklebur [4, 14]: 0
- Plant response rating, Cocklebur [4, 15]: 0
- Plant response rating, Cocklebur [4, 16]: 0
- Plant response rating, Cocklebur [4, 19]: 0
- Plant response rating, Cocklebur [4, 18]: 0
- Cocklebur plant response rating ([4]; Preemergence, scale 0 to 100): 0
- Ragweed plant response rating ([5]; postemergence, 0-100 scale): 0
- Plant response rating, Ragweed [5, 13]: 0
- Plant response rating, Ragweed [5, 14]: 0
- Plant response rating, Ragweed [5, 15]: 0
- Plant response rating, Ragweed [5, 16]: 0
- Plant response rating, Ragweed [5, 17]: 0
- Plant response rating, Ragweed [5, 18]: 20
- Ragweed plant response rating ([5]; Preemergence, scale 0 to 100): 0
- Goosegrass plant response rating ([6]; postemergence, 0-100 scale): 60
- Plant response rating, Goosegrass [6, 13]: 60
- Plant response rating, Goosegrass [6, 14]: 75
- Plant response rating, Goosegrass [6, 15]: 90
- Plant response rating, Goosegrass [6, 16]: 0
- Plant response rating, Goosegrass [6, 19]: 0
- Plant response rating, Goosegrass [6, 18]: 0
- Goosegrass plant response rating ([6]; Preemergence, scale 0 to 100): 0
- Lambsquarters plant response rating ([7]; postemergence, 0-100 scale): 0
- Plant response rating, Lambsquarters [7, 13]: 0
- Plant response rating, Lambsquarters [7, 14]: 0
- Plant response rating, Lambsquarters [7, 15]: 0
- Plant response rating, Lambsquarters [7, 16]: 0
- Plant response rating, Lambsquarters [7, 19]: 0
- Plant response rating, Lambsquarters [7, 18]: 0
- Lambsquarters plant response rating ([7]; Preemergence, scale 0 to 100): 0
- Crabgrass, Large plant response rating ([8]; postemergence, 0-100 scale): 60
- Plant response rating, Crabgrass, Large [8, 13]: 65
- Plant response rating, Crabgrass, Large [8, 14]: 90
- Plant response rating, Crabgrass, Large [8, 15]: 98
- Plant response rating, Crabgrass, Large [8, 16]: 0
- Plant response rating, Crabgrass, Large [8, 19]: 0
- Plant response rating, Crabgrass, Large [8, 18]: 0
- Crabgrass, Large plant response rating ([8]; Preemergence, scale 0 to 100): 0
- Soybean plant response rating (soybean (Glycine max); postemergence, 0-100 scale): 0
- Plant response rating, Soybean (soybean (Glycine max); [13]): 0
- Plant response rating, Soybean (soybean (Glycine max); [15]): 0
- Plant response rating, Soybean (soybean (Glycine max); [17]): 70
- Plant response rating, Soybean (soybean (Glycine max); [18]): 90
- Soybean plant response rating (soybean (Glycine max); Preemergence, scale 0 to 100): 0
- Velvetleaf plant response rating ([9]; postemergence, 0-100 scale): 0
- Plant response rating, Velvetleaf [9, 13]: 0
- Plant response rating, Velvetleaf [9, 15]: 0
- Plant response rating, Velvetleaf [9, 16]: 0
- Plant response rating, Velvetleaf [9, 17]: 0
- Plant response rating, Velvetleaf ([9]; Preemergence, 62 g ai/ha, 0 to 100 scale, 0 no effect, 100 complete control): 0
- Velvetleaf plant response rating ([9]; Preemergence, scale 0 to 100): 0
- Plant response rating, Barnyardgrass [10, 20]: 0
- Plant response rating, Barnyardgrass [10, 21]: 30
- Plant response rating, Barnyardgrass [10, 22]: 50
- Plant response rating, Barnyardgrass [10, 23]: 0
- Plant response rating, Ducksalad ([11]; 62 g ai/ha): 0
- Plant response rating, Ducksalad ([11]; 125 g ai/ha): 70
- Plant response rating, Ducksalad ([11]; 250 g ai/ha): 70
- Plant response rating, Rice (rice (Oryza sativa); [20]): 15
- Plant response rating, Rice (rice (Oryza sativa); [21]): 20
- Plant response rating, Rice (rice (Oryza sativa); [22]): 40
- Plant response rating, Rice (rice (Oryza sativa); [23]): 0
- Plant response rating, Sedge, Umbrella [12, 20]: 0
- Plant response rating, Sedge, Umbrella [12, 21]: 20
- Plant response rating, Sedge, Umbrella [12, 22]: 30
- Plant response rating, Sedge, Umbrella [12, 23]: 0

Source: patent US20100267561A1, “HERBICIDAL PYRIDAZINONE DERIVATIVES” (priority 2007, published 2010)
